Measurements: patent US20080175794A1, “Substituted Pyridazinyl- and Pyrimidinyl-Quinolin-4-Ylamine Analogues” (NEUROGEN CORPORATION, priority 2005, published 2008)

biological target: T1, human capsaicin receptor (Homo sapiens, UniProt Q8NER1); test: Calcium mobilization assay, determination of antagonist activity (Example 6); assay type: cell-based; conditions: Table III; assay provided in Example 6; cells expressing human capsaicin receptor, capsaicin at EC50
T1 construct: expressed in transfected cells
Summary of the method: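 Stable HEK293 clones expressing full-length human capsaicin receptor, loaded with Fluo-3 AM in KRH buffer pH 7.4 (1–2 h, 37 °C). Test compound (1–5 μM final) preincubated 0.5–6 h at room temperature in the dark, then capsaicin added at its EC50. FLIPR/Fluoroskan calcium signal; IC50 as concentration halving the capsaicin response.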

T1 sequence (Q8NER1 whole entry): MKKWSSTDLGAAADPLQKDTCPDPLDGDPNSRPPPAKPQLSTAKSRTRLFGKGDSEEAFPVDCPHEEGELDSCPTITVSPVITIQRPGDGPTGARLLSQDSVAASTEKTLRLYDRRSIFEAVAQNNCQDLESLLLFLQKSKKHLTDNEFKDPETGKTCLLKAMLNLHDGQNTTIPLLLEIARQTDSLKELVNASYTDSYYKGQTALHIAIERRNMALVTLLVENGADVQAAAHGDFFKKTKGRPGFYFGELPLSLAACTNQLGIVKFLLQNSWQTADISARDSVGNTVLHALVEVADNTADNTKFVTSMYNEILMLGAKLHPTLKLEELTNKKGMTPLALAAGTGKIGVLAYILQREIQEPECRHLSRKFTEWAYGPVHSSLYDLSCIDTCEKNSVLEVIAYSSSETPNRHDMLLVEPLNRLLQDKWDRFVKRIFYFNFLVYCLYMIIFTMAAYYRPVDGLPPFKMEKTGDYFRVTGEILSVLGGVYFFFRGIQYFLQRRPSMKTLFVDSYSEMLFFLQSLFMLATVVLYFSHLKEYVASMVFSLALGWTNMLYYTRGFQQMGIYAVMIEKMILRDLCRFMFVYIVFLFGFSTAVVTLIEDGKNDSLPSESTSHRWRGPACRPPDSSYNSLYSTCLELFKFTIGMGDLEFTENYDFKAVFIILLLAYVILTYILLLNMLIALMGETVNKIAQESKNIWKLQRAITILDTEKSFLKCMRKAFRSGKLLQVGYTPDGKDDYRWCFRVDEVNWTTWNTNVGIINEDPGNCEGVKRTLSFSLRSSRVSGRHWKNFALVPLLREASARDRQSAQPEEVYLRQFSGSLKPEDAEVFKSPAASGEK

IC50, < 1000 nM:
CC(C)C(C)Nc1cc(C(F)(F)F)c(-c2cnc3c(Nc4ccc(C(F)(F)F)cn4)ccnc3n2)nn1 (stereo not shown) [Compound 111, 3-{6-[(1,2-dimethylpropyl)amino]-4-(trifluoromethyl)pyridazin-3-yl}-N-[5-(trifluoromethyl)pyridin-2-yl]pyrido[2,3-b]pyrazin-8-amine]
CC1CCN(c2cc(C(F)(F)F)c(-c3cnc4c(Nc5ccc(C(F)(F)F)cn5)ccnc4n3)nn2)CC1 [Compound 177, 3-[6-(4-methylpiperidin-1-yl)-4-(trifluoromethyl)pyridazin-3-yl]-N-[5-(trifluoromethyl)pyridin-2-yl]pyrido[2,3-b]pyrazin-8-amine]
FC(F)(F)c1ccc(Nc2ccnc3nc(-c4nnc(NC5CCCC5)cc4C(F)(F)F)cnc23)nc1 [Compound 109, 3-[6-(cyclopentylamino)-4-(trifluoromethyl)pyridazin-3-yl]-N-[5-(trifluoromethyl)pyridin-2-yl]pyrido[2,3-b]pyrazin-8-amine]
CN(C)CCOc1cc(C(F)(F)F)c(-c2cnc3c(Nc4ccc(C(F)(F)F)cn4)ccnc3n2)nn1 [Compound 62, 3-{6-[2-(dimethylamino)ethoxy]-4-(trifluoromethyl)pyridazin-3-yl}-N-[5-(trifluoromethyl)pyridin-2-yl]pyrido[2,3-b]pyrazin-8-amine]
CN(CCCO)c1cc(C(F)(F)F)c(-c2cnc3c(Nc4ccc(C(F)(F)F)cn4)ccnc3n2)nn1 [Compound 137, 3-{methyl[5-(trifluoromethyl)-6-(8-{[5-(trifluoromethyl)pyridin-2-yl]amino}pyrido[2,3-b]pyrazin-3-yl)pyridazin-3-yl]amino}propan-1-ol]
CN1CCN(CCCNc2cc(C(F)(F)F)c(-c3cnc4c(Nc5ccc(C(F)(F)F)cn5)ccnc4n3)nn2)CC1 [Compound 81, 3-[6-{[3-(4-methylpiperazin-1-yl)propyl]amino}-4-(trifluoromethyl)pyridazin-3-yl]-N-[5-(trifluoromethyl)pyridin-2-yl]pyrido[2,3-b]pyrazin-8-amine]
CN(C)C1CCCN(c2cc(C(F)(F)F)c(-c3cnc4c(Nc5ccc(C(F)(F)F)cn5)ccnc4n3)nn2)C1 (stereo not shown) [Compound 132, 3-{6-[3-(dimethylamino)piperidin-1-yl]-4-(trifluoromethyl)pyridazin-3-yl}-N-[5-(trifluoromethyl)pyridin-2-yl]pyrido[2,3-b]pyrazin-8-amine]
CCCCN(C)c1cc(C(F)(F)F)c(-c2cnc3c(Nc4ccc(C(F)(F)F)cn4)ccnc3n2)nn1 [Compound 122, 3-{6-[butyl(methyl)amino]-4-(trifluoromethyl)pyridazin-3-yl}-N-[5-(trifluoromethyl)pyridin-2-yl]pyrido[2,3-b]pyrazin-8-amine]
FC(F)(F)c1ccc(Nc2ccnc3nc(-c4nnc(NCCCCN5CCCC5)cc4C(F)(F)F)cnc23)nc1 [Compound 84, 3-{6-[(4-pyrrolidin-1-ylbutyl)amino]-4-(trifluoromethyl)pyridazin-3-yl}-N-[5-(trifluoromethyl)pyridin-2-yl]pyrido[2,3-b]pyrazin-8-amine]
CCCC(CO)Nc1cc(C(F)(F)F)c(-c2cnc3c(Nc4ccc(C(F)(F)F)cn4)ccnc3n2)nn1 (stereo not shown) [Compound 119, 2-{[5-(trifluoromethyl)-6-(8-{[5-(trifluoromethyl)pyridin-2-yl]amino}pyrido[2,3-b]pyrazin-3-yl)pyridazin-3-yl]amino}pentan-1-ol]
FC(F)(F)c1cnc(Nc2ccnc3nc(-c4nnccc4C(F)(F)F)cnc23)cn1 [Compound 46, N-[5-(trifluoromethyl)-2-pyrazinyl]-3-[4-(trifluoromethyl)-3-pyridazinyl]pyrido[2,3-b]pyrazin-8-amine]
CCCC(C)Nc1cc(C(F)(F)F)c(-c2cnc3c(Nc4ccc(C(F)(F)F)cn4)ccnc3n2)nn1 (stereo not shown) [Compound 158, 3-{6-[(1-methylbutyl)amino]-4-(trifluoromethyl)pyridazin-3-yl}-N-[5-(trifluoromethyl)pyridin-2-yl]pyrido[2,3-b]pyrazin-8-amine]
CCCN(CCO)c1cc(C(F)(F)F)c(-c2cnc3c(Nc4ccc(C(F)(F)F)cn4)ccnc3n2)nn1 [Compound 134, 2-{propyl[5-(trifluoromethyl)-6-(8-{[5-(trifluoromethyl)pyridin-2-yl]amino}pyrido[2,3-b]pyrazin-3-yl)pyridazin-3-yl]amino}ethanol]
CCNc1cc(C(F)(F)F)c(-c2cnc3c(Nc4ccc(C(F)(F)F)cn4)ccnc3n2)nn1 [Compound 101, 3-[6-(ethylamino)-4-(trifluoromethyl)pyridazin-3-yl]-N-[5-(trifluoromethyl)pyridin-2-yl]pyrido[2,3-b]pyrazin-8-amine]
C#CCN(C)c1cc(C(F)(F)F)c(-c2cnc3c(Nc4ccc(C(F)(F)F)cn4)ccnc3n2)nn1 [Compound 125, 3-{6-[methyl(prop-2-yn-1-yl)amino]-4-(trifluoromethyl)pyridazin-3-yl}-N-[5-(trifluoromethyl)pyridin-2-yl]pyrido[2,3-b]pyrazin-8-amine]
FC(F)(F)CNc1cc(C(F)(F)F)c(-c2cnc3c(Nc4ccc(C(F)(F)F)cn4)ccnc3n2)nn1 [Compound 155, 3-{6-[(2,2,2-trifluoroethyl)amino]-4-(trifluoromethyl)pyridazin-3-yl}-N-[5-(trifluoromethyl)pyridin-2-yl]pyrido[2,3-b]pyrazin-8-amine]
CN1CCCC1CCOc1cc(C(F)(F)F)c(-c2cnc3c(Nc4ccc(C(F)(F)F)cn4)ccnc3n2)nn1 (stereo not shown) [Compound 65, 3-{6-[2-(1-methylpyrrolidin-2-yl)ethoxy]-4-(trifluoromethyl)pyridazin-3-yl}-N-[5-(trifluoromethyl)pyridin-2-yl]pyrido[2,3-b]pyrazin-8-amine]
CC(O)CNc1cc(C(F)(F)F)c(-c2cnc3c(Nc4ccc(C(F)(F)F)cn4)ccnc3n2)nn1 (stereo not shown) [Compound 116, 1-{[5-(trifluoromethyl)-6-(8-{[5-(trifluoromethyl)pyridin-2-yl]amino}pyrido[2,3-b]pyrazin-3-yl)pyridazin-3-yl]amino}propan-2-ol]
CCCCNc1cc(C(F)(F)F)c(-c2cnc3c(Nc4ccc(C(F)(F)F)cn4)ccnc3n2)nn1 [Compound 104, 3-[6-(butylamino)-4-(trifluoromethyl)pyridazin-3-yl]-N-[5-(trifluoromethyl)pyridin-2-yl]pyrido[2,3-b]pyrazin-8-amine]
CCOC(=O)CN(C)c1cc(C(F)(F)F)c(-c2cnc3c(Nc4ccc(C(F)(F)F)cn4)ccnc3n2)nn1 [Compound 187, ethyl N-methyl-N-[5-(trifluoromethyl)-6-(8-{[5-(trifluoromethyl)pyridin-2-yl]amino}pyrido[2,3-b]pyrazin-3-yl)pyridazin-3-yl]glycinate]
COC1CCN(c2cc(C(F)(F)F)c(-c3cnc4c(Nc5ccc(C(F)(F)F)cn5)ccnc4n3)nn2)CC1 [Compound 188, 3-[6-(4-methoxypiperidin-1-yl)-4-(trifluoromethyl)pyridazin-3-yl]-N-[5-(trifluoromethyl)pyridin-2-yl]pyrido[2,3-b]pyrazin-8-amine]
CN(CC(N)=O)c1cc(C(F)(F)F)c(-c2cnc3c(Nc4ccc(C(F)(F)F)cn4)ccnc3n2)nn1 [Compound 57, N2-methyl-N2-[5-(trifluoromethyl)-6-(8-{[5-(trifluoromethyl)pyridin-2-yl]amino}pyrido[2,3-b]pyrazin-3-yl)pyridazin-3-yl]glycinamide]
CS(=O)(=O)c1ccc(Nc2ccnc3nc(-c4nnccc4C(F)(F)F)cnc23)nc1 [Compound 47, N-[5-(methylsulfonyl)-2-pyridinyl]-3-[4-(trifluoromethyl)-3-pyridazinyl]pyrido[2,3-b]pyrazin-8-amine]
CCCNc1cc(C(F)(F)F)c(-c2cnc3c(Nc4ccc(C(F)(F)F)cn4)ccnc3n2)nn1 [Compound 102, 3-[6-(propylamino)-4-(trifluoromethyl)pyridazin-3-yl]-N-[5-(trifluoromethyl)pyridin-2-yl]pyrido[2,3-b]pyrazin-8-amine]
CN(CC#N)c1cc(C(F)(F)F)c(-c2cnc3c(Nc4ccc(C(F)(F)F)cn4)ccnc3n2)nn1 [Compound 124, {methyl[5-(trifluoromethyl)-6-(8-{[5-(trifluoromethyl)pyridin-2-yl]amino}pyrido-[2,3-b]pyrazin-3-yl)pyridazin-3-yl]amino}acetonitrile]
FC(F)(F)c1ccc(Nc2ccnc3nc(-c4nnc(NC5CCCCC5)cc4C(F)(F)F)cnc23)nc1 [Compound 110, 3-[6-(cyclohexylamino)-4-(trifluoromethyl)pyridazin-3-yl]-N-[5-(trifluoromethyl)pyridin-2-yl]pyrido[2,3-b]pyrazin-8-amine]
CC(CN(C)C)Nc1cc(C(F)(F)F)c(-c2cnc3c(Nc4ccc(C(F)(F)F)cn4)ccnc3n2)nn1 (stereo not shown) [Compound 82, N1,N1-dimethyl-N2-[5-(trifluoromethyl)-6-(8-{[5-(trifluoromethyl)pyridin-2-yl]amino}pyrido[2,3-b]pyrazin-3-yl)pyridazin-3-yl]propane-1,2-diamine]
CN(C)C1CCN(c2cc(C(F)(F)F)c(-c3cnc4c(Nc5ccc(C(F)(F)F)cn5)ccnc4n3)nn2)CC1 [Compound 96, 3-{6-[4-(dimethylamino)piperidin-1-yl]-4-(trifluoromethyl)pyridazin-3-yl}-N-[5-(trifluoromethyl)pyridin-2-yl]pyrido[2,3-b]pyrazin-8-amine]
